In patent US7022699B2, “Cyclohexenyl phenyl diazepines vasopressin and oxytocin receptor modulators” (Wyeth, priority 2001, dated 2006):

biological target: T1, human vasopressin V1a receptor subtype (Homo sapiens, UniProt P37288); test: Vasopressin binding in CHO cell membranes expressing human vasopressin V1a subtype receptors ([3H]Manning ligand); conditions: 100 nM, values without parentheses
T1 construct: host or cells: CHO cells, stably transfected (pZeoSV vector for the Thibonnier cells); membranes
T1 sequence (P37288 whole entry): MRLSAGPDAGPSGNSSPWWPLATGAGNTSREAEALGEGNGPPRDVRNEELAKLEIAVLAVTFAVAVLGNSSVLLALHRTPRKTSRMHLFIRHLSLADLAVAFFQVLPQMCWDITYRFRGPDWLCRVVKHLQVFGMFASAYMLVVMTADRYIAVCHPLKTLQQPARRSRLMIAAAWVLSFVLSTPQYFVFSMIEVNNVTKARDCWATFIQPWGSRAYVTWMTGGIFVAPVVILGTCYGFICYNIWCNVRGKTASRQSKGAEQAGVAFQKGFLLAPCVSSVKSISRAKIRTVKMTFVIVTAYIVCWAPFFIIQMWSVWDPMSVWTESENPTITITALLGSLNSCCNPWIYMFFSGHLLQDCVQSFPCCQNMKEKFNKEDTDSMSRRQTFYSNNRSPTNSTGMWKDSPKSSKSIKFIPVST
From the text: Vasopressin Binding in Chinese Hamster Ovary Cell Membranes Expressing Human Vasopressin V1a Subtype Receptors
Chinese hamster ovary cells (CHO cells) stably transfected with the human vasopressin V1a subtype receptors were either obtained from Biosignal Inc., 1744 rue Williams, Montreal, Quebec, Canada or obtained from M. Thibonnier, Case Western Reserve University School of Medicine, Cleveland, Ohio. A. Passaging and Amplification of Cells: CHO cells transfected with the human vasopressin V1a subtype receptors obtained from M. Thibonnier (pZeoSV vector) are allowed to grow to confluency (approx. >90%) in T-150 flasks under sterile conditions, in a cell culture medium of F-12 Nutrient Mixture (HAM) with L-glutamine (Gibco Cat. #11765-054) containing 15 mM HEPES (Gibco Cat. #15630-080), 1% antibiotic/antimycotic (add 5 mL 100×, Gibco Cat. #15240-062 per 500 mL F-12), 250 μg/mL Zeocin (add 1.25 mL of 100 mg/mL Invitrogen R-250-01 per 500 mL F-12) and 10% Fetal Bovine Serum (Qualified, heat inactivated, Gibco Cat. #16140-063). The medium is removed by aspiration and the cells are washed with 10 mL of Hank's Balanced Salt solution (Gibco Cat. #14175-095). The salt solution is removed by aspiration and the cells are trypsinized with 5 mL of trypsin-EDTA (0.05% trypsin, 0.53 mM EDTA-4Na, Gibco Cat. #25300-070) for 1 min. The trypsin is removed by aspiration and the cells dislodged by tapping. Cell Culture medium (eg, 30 mL for 1:30 split) is immediately added and mixed well to inactivate trypsin. 1 mL of detached cells is added to new culture flasks containing fresh cell culture medium (eg, into 25 mL per T-150 flask), and mixed gently. The cells are incubated at 37° C. in 5% CO2. The medium is changed at 3 to 4 days interval (or as appropriate). The cells grow to confluency (approx. >75%–95%) within 7–8 days. All steps are done under sterile conditions. B. Membrane Preparation: The cells are washed twice gently with Hank's Balanced Salt solution (e.g.,. use 10 mL per T-150 flask). The excess is removed and the cells are bathed for 15–30 min. in an enzyme-free Cell Dissociation Buffer (e.g. use 8 mL Hank's Based, Gibco Cat. #13150-016 per T-150 flask) until the cells are loosened. The contents are transferred to centrifuge tubes (50 mL size) kept in ice bath. All subsequent steps are done at 4° C. The tubes are centrifuged at 300×g for 15 min (1380 rpm on SORVAL, Model RT6000D, using rotor for 50 mL tubes). The supernatant is discarded and the cells suspended in homogeneizing buffer (10 mM Tris-HCl containing 0.25 M sucrose and 1 mM EDTA, pH 7.4) ensuring that the volume of the buffer is about ten times the volume of the cell pellet. The cells are pooled into a centrifuge tube (50 mL) and homogenized with Polytron at setting 6 for 10 sec. The homogenate is transferred into a Potter-Elvjehm homogenizer and homogenized with 3 strokes. The homogenate is centrifuged at 1500×g for 10 min at 4° C. (3100 rpm using SORVAL, model RT6000D, using rotor for 50 mL tubes). The pellet is discarded. The supernatant is centrifuged at 100,000×g for 60 min. at 4° C. (Beckman L8-80M ultracentrifuge; spin at 37,500 rpm with rotor type 70 Ti for 50 mL tubes; 38,000 rpm with type 80Ti for 15 mL tubes; or 35,800 rpm with rotor type 45Ti). The supernantant is discarded and the pellet suspended in 3 to 4 mL of Tris buffer (50 mM TRIS-HCl, pH 7.4). The protein content is estimated by the Bradford or Lowry method. The volume of the membrane suspension is adjusted with the membrane buffer (50 mM Tris-HCl containing 0.1% BSA and 0.1 mM PMSF) to give 3.0 mg/mL (or as appropriate) of protein. The membranes are aliquoted and stored at −70° C. C. […]

| SMILES | inhibition at 0.1 µM | V1a % inhibition @ 100 nM |
| --- | --- | --- |
| CC1=C(c2ccc(C(=O)N3Cc4cccn4Cc4ccccc43)cc2C)CCCC1=O [Example 4, 3-[2-Methyl-4-(5H-pyrrolo[2,1-c][1,4]benzodiazepin-10(11H)-yl-carbonyl)phenyl]-2-methyl-cyclohex-2-en-1-one] | 7% | – |
| CC1=C(c2ccc(C(=O)N3Cc4cccn4Cc4ccccc43)cc2C)CCCC1N (stereo not shown) [Example 45, [4-(3-Amino-2-methyl-cyclohex-1-en-1-yl)-3-methyl-phenyl]-(10,11-dihydro-5H-pyrrolo[2,1-c][1,4]benzodiazepin-10-yl)-methanone] | 50% | – |
| CC1(C)C2CC=C(c3ccc(C(=O)N4Cc5cccn5Cc5ccccc54)cc3)C1C2 (stereo not shown) [Example 22, (10,11-Dihydro-5H-pyrrolo[2,1-c][1,4]benzodiazepin-10-yl)-[4-(6,6-dimethyl-bicyclo[3.1.1]hept-2-en-2-yl)-phenyl]-methanone] | 13% | – |
| Cc1cc(C(=O)N2Cc3cccn3Cc3ccccc32)ccc1C1=CCC2CCC1C2 (stereo not shown) [Example 35, (10,11-Dihydro-5H-pyrrolo[2,1-c][1,4]benzodiazepin-10-yl)-(4-bicyclo[3.2.1]oct-2-en-2-yl-3-methyl-phenyl)-methanone] | 36% | – |
| O=C1C=C(c2ccc(C(=O)N3Cc4cccn4Cc4ccccc43)cc2)CCC1 [Example 24, 3-[4-(10,11-Dihydro-5H-pyrrolo[2,1-c][1,4]benzodiazepine-10-carbonyl)-phenyl]-cyclohex-2-en-1-one] | 49% | – |
| O=C(c1ccc(C2=CCCc3ccccc32)cc1Cl)N1Cc2cccn2Cc2ccccc21 [Example 11, (10,11-Dihydro-5H-pyrrolo[2,1-c][1,4]benzodiazepin-10-yl)-[2-chloro-4-(3,4-dihydro-naphthalen-1-yl)-phenyl]-methanone] | 6% | – |
| COc1cc(C2=CCCc3ccccc32)c(Cl)cc1C(=O)N1Cc2cccn2Cc2ccccc21 [Example 8, 10-[5-Chloro-4-(3,4-dihydro-naphthalen-1-yl)-2-methoxybenzoyl]-10,11-dihydro-5H-pyrrolo[2,1-c][1,4]benzodiazepine] | -9% | – |
| CC1=C(c2ccc(C(=O)N3Cc4cccn4Cc4ccccc43)cc2C)CCCC1O (racemic) [Example 5, (10,11-Dihydro-5H-pyrrolo[2,1-c][1,4]benzodiazepin-10-yl)-[4-(3-hydroxy-2-methyl-cyclohex-1-en-1-yl)-3-methyl-phenyl]-methanone] | 0% | – |
| CC(C)(C)C1CCCC=C1c1ccc(C(=O)N2Cc3cccn3Cc3ccccc32)cc1 (stereo not shown) [Example 20, (10,11-5H-Dihydro-pyrrolo[2,1-c][1,4]benzodiazepin-10-yl)-[4-(6-tert-butyl-cyclohex-1-en-1-yl)-phenyl]-methanone] | – | 4% |
| CC1=C(c2ccc(C(=O)N3Cc4cccn4Cc4ccccc43)cc2)CCCC1=O [Example 26, 3-[4-(10,11-Dihydro-5H-pyrrolo[2,1-c][1,4]benzodiazepine-10-carbonyl)-phenyl]-2-methyl-cyclohex-2-en-1-one] | 27% | – |
| CC1(C)CCCC=C1c1ccc(C(=O)N2Cc3cccn3Cc3ccccc32)c(Cl)c1 [Example 12, (10,11-Dihydro-5H-pyrrolo[2,1-c][1,4]benzodiazepin-10-yl)-[2-chloro-4-(6,6-dimethyl-cyclohex-1-en-1-yl)-phenyl]-methanone] | 54% | – |
| CC1=C(c2ccc(C(=O)N3Cc4cccn4Cc4ccccc43)cc2C)CCC[C@@H]1O (single isomer, unassigned) [Example 43] | 93% | – |
| CC1=C(c2ccc(C(=O)N3Cc4cccn4Cc4ccccc43)cc2)CCCC1O (stereo not shown) [Example 27, (10,11-Dihydro-5H-pyrrolo[2,1-c][1,4]benzodiazepin-10-yl)-[4-(3-hydroxy-2-methyl-cyclohex-1-en-1-yl)-phenyl]-methanone] | 89% | – |
| CC1(C)C=C(c2ccc(C(=O)N3Cc4cccn4Cc4ccccc43)cc2)CC(C)(C)C1 [Example 23, (10,11-Dihydro-5H-pyrrolo[2,1-c][1,4]benzodiazepin-10-yl)-[4-(3,3,5,5-tetramethyl-cyclohex-1-en-1-yl)-phenyl]-methanone] | -10% | – |
| CC1=C(c2ccc(C(=O)N3Cc4cccn4Cc4ccccc43)c(Cl)c2)CCCC1=O [Example 13, (10,11-Dihydro-5H-pyrrolo[2,1-c][1,4]benzodiazepin-10-yl)-[2-chloro-4-(2-methyl-3-oxo-cyclohex-1-en-1-yl)-phenyl]-methanone] | 95% | – |
| O=C(c1ccc(C2=CCCCC2)cc1Cl)N1Cc2cccn2Cc2ccccc21 [Example 10, (10,11-dihydro-5H-pyrrolo[2,1-c][1,4]benzodiazepin-10-yl)-[2-chloro-4-(cyclohex-1-en1-yl)-phenyl]-methanone] | 94% | – |
| Cc1cc(C(=O)N2Cc3cccn3Cc3ccccc32)ccc1C1=CCCCC1 [Example 2, (10,11-Dihydro-5H-pyrrolo[2,1-c][1,4]benzodiazepin-10-yl)-(4-cyclohex-1-en-1-yl-3-methyl-phenyl)-methanone] | 74% | – |
| Cc1cc(C(=O)N2Cc3cccn3Cc3ccccc32)ccc1C1=CCCCC1(C)C [Example 30, (10,11-Dihydro-5H-pyrrolo[2,1-c][1,4]benzodiazepin-10-yl)-[4-(6,6-dimethyl-cyclohex-1-en-1-yl)-3-methyl-phenyl]-methanone] | 18% | – |
| CC1=C(c2ccc(C(=O)N3Cc4cccn4Cc4ccccc43)cc2)C(C)CCC1 (stereo not shown) [Example 19, (10,11-Dihydro-5H-pyrrolo[2,1-c][1,4]benzodiazepin-10-yl)-[4-(2,6-dimethyl-cyclohex-1-en-1-yl)-phenyl]-methanone] | 23% | – |
| CO[C@@H]1CCCC(c2ccc(C(=O)N3Cc4cccn4Cc4ccccc43)cc2C)=C1C [Example 44, 10-{4-[(3R)-3-Methoxy-2-methylcyclohex-1-en-1-yl]-3-methylbenzoyl}-10,11-dihydro-5H-pyrrolo[2,1-c][1,4]benzodiazepine] | 85% | – |

same assay, conditions: values in parentheses

| SMILES | IC50 |
| --- | --- |
| CC1CCCC=C1c1ccc(C(=O)N2Cc3cccn3Cc3ccccc32)cc1 (stereo not shown) [Example 16, (10,11-Dihydro-5H-pyrrolo[2,1-c][1,4]benzodiazepin-10-yl)-[4-(6-methyl-cyclohex-1-en-1-yl)-phenyl]-methanone] | 77.8 nM |
| COc1cc(C2=CCCCC2)c(Cl)cc1C(=O)N1Cc2cccn2Cc2ccccc21 [Example 1, 10-(5-Chloro-4-cyclohex-1-en-1-yl-2-methoxybenzoyl)-10,11-dihydro-5H-pyrrolo[2,1-c][1,4]benzodiazepine] | 232 nM |
| Cc1cc(C(=O)N2Cc3cccn3Cc3ccccc32)ccc1C1=CCCc2ccccc21 [Example 3, (10,11-Dihydro-5H-pyrrolo[2,1-c][1,4]benzodiazepin-10-yl)-[4-(3,4-dihydro-naphthalen-1-yl)-3-methyl-phenyl]-methanone] | 432 nM |
| CC1=C(c2ccc(C(=O)N3Cc4cccn4Cc4ccccc43)cc2)CCCC1 [Example 7, (10,11-Dihydro-5H-pyrrolo[2,1-c][1,4]benzodiazepin-10-yl)-[4-(2-methyl-cyclohex-1-en-1-yl)-phenyl]-methanone] | 45.7 nM |
| O=C(c1ccc(C2=CCCCC2)cc1)N1Cc2cccn2Cc2ccccc21 [Example 15, (10,11-Dihydro-5H-pyrrolo[2,1-c][1,4]benzodiazepin-10-yl)-(4-cyclohex-1-en-1-yl-phenyl)-methanone] | 35.3 nM |
